Converted amounts (≈) assume the structure as drawn. Read-outs that look alike come from different tables or passages of the source. Each block holds one compound with its values, some of them ahead of it.
Assays:
MRSA BAA-1707 = test: Calgary Biofilm Device (CBD) MBC/MBEC determination; assay type: cell-based, Staphylococcus aureus; details: for MBC: Staphylococcus aureus, read-out: MRSA BAA-1707 MBC; for MRSA BAA-1707 MBEC: biofilm eradication, second value of cell
Experimental: (§1) Biofilm eradication experiments were performed using the Calgary Biofilm Device to determine MBC/MBEC values for various compounds of interest (Innovotech, product code: 19111). The Calgary device (96-well plate with lid containing 96 total pegs to establish biofilms; 1 peg/well) was inoculated with 125 μL of a mid-log phase culture diluted 1,000-fold in tryptic soy broth with 0.5% glucose (TSBG) to establish bacterial biofilms after incubation at 37° C. for 24 hours. The lid of the Calgary device was then removed, washed and transferred to another 96-well plate containing 2-fold serial dilutions of the test compounds (the “challenge plate”). The total volume of media with compound in each well in the challenge plate was 150 μL. The Calgary device was then incubated at 37° C. for 24 hours. The lid was then removed from the challenge plate and MBC/MBEC values were determined using different final assays. […] The MBC values were determined as the concentration giving a lack of visible bacterial growth (e.g., turbidity). For determination of MBEC values, the Calgary device lid (with attached pegs/treated biofilms) was transferred to a new 96-well plate containing 150 μL of fresh TSBG media in each well and incubated for 24 hours at 37° C. to allow viable biofilms to grow and disperse resulting in turbidity after the incubation period. […] In select experiments, treated pegs from the Calgary device were removed from lead biofilm eradicators after final incubation, sonicated for 30 minutes in PBS and plated out to determine biofilm cell killing (e.g., colony forming unit per milliliter, CFU/mL).

[1] = test system: MRSA-2 planktonic cells and biofilms; test: as above; assay type: cell-based, Staphylococcus aureus; details: CBD; for MBC: planktonic killing, first value of MBC/MBEC cell
Experimental: as §1

[2] = test system: MRSE (ATCC 35984) planktonic cells and biofilms; test: as above; assay type: cell-based, Staphylococcus epidermidis; details: for MBC: Staphylococcus epidermidis
Experimental: as §1

human red blood cells = test: Hemolysis assay; assay type: cell-based
Experimental: Freshly drawn human red blood cells (hRBC with ethylenediaminetetraacetic acid (EDTA) as an anticoagulant) were washed with Tris-buffered saline (0.01M Tris-base, 0.155M sodium chloride (NaCl), pH 7.2) and centrifuged for 5 minutes at 3500 rpm. The washing was repeated three times with the buffer. In 96-well plate, the test compounds were added to the buffer. […] The plate was then incubated for 1 hour at 37° C. After incubation, the plate is centrifuged for 5 minutes at 3500 rpm. Then 80 μL of the supernatant were transferred to another 96-well plate and the Optical Density (OD) was read at 405 nm. […] The percent of hemolysis was calculated as (OD405 of the compound-OD405 DMSO)/(OD405 Triton X-OD405 buffer).

[3] = test system: vancomycin-resistant Enterococcus faecium (VRE, ATCC 700221); test: Minimum inhibitory concentration (MIC) susceptibility assay, broth microdilution; assay type: cell-based; details: read-out: VRE MIC
Experimental: (§2) The minimum inhibitory concentration (MIC) for each compound was determined by the broth microdilution method as recommended by the Clinical and Laboratory Standards Institute (CLSI). In a 96-well plate, eleven two-fold serial dilutions of each compound were made in a final volume of 100 μL Luria Broth. Each well was inoculated with ˜10^5 bacterial cells at the initial time of incubation, prepared from a fresh log phase culture (OD600 of 0.5 to 1.0 depending on bacterial strain). […] The concentration range tested for each compound during this study was 0.10 to 100 μM. DMSO served as the vehicle and negative control in each microdilution MIC assay. DMSO was serially diluted with a top concentration of 1% v/v. Bacterial strains used: methicillin-resistant Staphylococcus aureus-2 (MRSA-2; clinical isolate from Shands Hospital in Gainesville, Fla.), methicillin-resistant Staphylococcus epidermidis (MRSE; ATCC 35984), vancomycin-resistant Enterococcus faecium (VRE, ATCC 700221).

[4] = test system: methicillin-resistant Staphylococcus aureus-2 (MRSA-2; clinical isolate); test: as above; assay type: cell-based
Experimental: as §2

[5] = test system: VRE (ATCC 700221) planktonic cells and biofilms; test: Calgary Biofilm Device (CBD) MBC/MBEC determination; assay type: cell-based, Enterococcus faecium; details: Enterococcus
Experimental: as §1

[6] = test system: methicillin-resistant Staphylococcus epidermidis (MRSE; ATCC 35984); test: Minimum inhibitory concentration (MIC) susceptibility assay, broth microdilution; assay type: cell-based; details: read-out: MRSE MIC
Experimental: as §2

[7] = Table 4, planktonic killing, CBD, first value of cell
[8] = Staphylococcus aureus, MRSA, Table 3, read-out: MRSA-2 MBC
[9] = Table 3, planktonic killing, CBD, first value of cell, read-out: MRSE MBC
[10] = Staphylococcus, MRSA, Table 3, at least three independent experiments, read-out: MRSA-2 MIC
[11] = Table 3, planktonic killing, CBD, first value of cell, footnote c = lowest concentration tested, read-out: VRE MBC
[12] = Staphylococcus epidermidis, Table 3
[13] = Table 2, read-out: MRSA-2 Clinical Isolate MBC
[14] = Staphylococcus epidermidis, Table 2, ATCC 35984
[15] = Table 2, human red blood cells, 1 hour at 37° C.
[16] = Staphylococcus, MRSA, Table 2, 2 to 6 independent experiments, read-out: MRSA-2 MIC

SMILES: O=Cc1ccc2c(Br)cc(Br)c(O)c2n1 [Compound 2, 5,7-dibromo-8-hydroxyquinoline-2-carbaldehyde]
melting point: 154 to 156 °C

SMILES: CCCc1ccc2c(Br)cc(Br)c(O)c2n1 [A-HQ-3]
MBC (MRSA BAA-1707; [7]): 31.3 µM (≈ 10.8 µg/mL) | MBC [1, 8]: 125 µM (≈ 43.1 µg/mL) | MBC [2, 9]: 9.38 µM (≈ 3.24 µg/mL) | % Haemolysis at 200 μM (human red blood cells; human, 1 h, pH 7.2): ≤1% | MIC ([3]; Table 3): 0.78 µM (≈ 0.269 µg/mL) | MIC [4, 10]: 0.78 µM (≈ 0.269 µg/mL) | MBC [5, 11]: 2 µM (≈ 0.69 µg/mL)

SMILES: CC(C)Cc1ccc2c(Br)cc(Br)c(O)c2n1 [A-HQ-5]
MBC (MRSA BAA-1707; [7]): 31.3 µM (≈ 11.2 µg/mL) | % Haemolysis at 200 μM (human red blood cells; human, 1 h, pH 7.2): 12.3% | MIC ([3]; Table 3): 100 µM (≈ 35.9 µg/mL) | MIC [4, 10]: 0.78 µM (≈ 0.28 µg/mL)

SMILES: Oc1c(Br)cc(Br)c2ccc(CNc3ccccc3Br)nc12 [RA-HQ-16]
MBC (MRSA BAA-1707; [7]): 93.8 µM (≈ 45.7 µg/mL) | MBC [1, 8]: 188 µM (≈ 91.6 µg/mL) | MBC [2, 9]: 46.9 µM (≈ 22.8 µg/mL) | % Haemolysis at 200 μM (human red blood cells; human, 1 h, pH 7.2): ≤1% | MIC [6, 12]: 0.2 µM (≈ 0.0974 µg/mL) | MIC ([3]; Table 3): 0.78 µM (≈ 0.38 µg/mL) | MIC [4, 10]: 1.56 µM (≈ 0.76 µg/mL) | MBC [5, 11]: 7.8 µM (≈ 3.8 µg/mL)

SMILES: Oc1c(Br)cc(Br)c2ccc(CNc3ccc(F)cc3)nc12 [RA-HQ-12]
fold more potent than HQ-1 (MBEC) (MRSA BAA-1707; MRSA BAA-1707): 6 fold | MBC (MRSA BAA-1707; [7]): 15.6 µM (≈ 6.65 µg/mL) | MBC [1, 8]: 31.3 µM (≈ 13.3 µg/mL) | MBEC:MBC ratio ([2]; MRSE 35984, CBD): ~1 | MBC [2, 9]: 3.9 µM (≈ 1.66 µg/mL) | % Haemolysis at 200 μM (human red blood cells; human, 1 h, pH 7.2): ≤1% | MIC [6, 12]: 0.39 µM (≈ 0.166 µg/mL) | MIC ([3]; Table 3): 0.78 µM (≈ 0.332 µg/mL) | MIC [4, 10]: 0.39 µM (≈ 0.166 µg/mL) | MBC [5, 11]: 1 µM (≈ 0.426 µg/mL)

SMILES: CCCCCCCCCC(=O)N[C@@H](Cc1c[nH]c2ccccc12)C(=O)N[C@H](CC(N)=O)C(=O)N[C@@H](CC(=O)O)C(=O)N[C@@H]1C(=O)NCC(=O)N[C@@H](CCCN)C(=O)N[C@@H](CC(=O)O)C(=O)N[C@H](C)C(=O)N[C@@H](CC(=O)O)C(=O)NCC(=O)N[C@H](CO)C(=O)N[C@@H]([C@H](C)CC(=O)O)C(=O)N[C@@H](CC(=O)c2ccccc2N)C(=O)O[C@@H]1C [Daptomycin, reference compound]
MBC (MRSA BAA-1707; [7]): 125 µM (≈ 203 µg/mL) | MRSA BAA-1707 MBEC (MRSA BAA-1707; Table 4, CBD): unable to eradicate | MBC [1, 8]: 62.5 µM (≈ 101 µg/mL) | MBC [1, 13]: 62.5 µM (≈ 101 µg/mL) | % Haemolysis at 200 μM (human red blood cells; human, 1 h, pH 7.2): 1.7% | MIC [6, 14]: 12.5 µM (≈ 20.3 µg/mL) | MIC ([6]; Table 3): 12.5 µM (≈ 20.3 µg/mL)

SMILES: CN[C@H](CC(C)C)C(=O)N[C@H]1C(=O)N[C@@H](CC(N)=O)C(=O)N[C@H]2C(=O)N[C@H]3C(=O)N[C@H](C(=O)N[C@H](C(=O)O)c4cc(O)cc(O)c4-c4cc3ccc4O)[C@H](O)c3ccc(c(Cl)c3)Oc3cc2cc(c3O[C@@H]2O[C@H](CO)[C@@H](O)[C@H](O)[C@H]2O[C@H]2C[C@](C)(N)[C@H](O)[C@H](C)O2)Oc2ccc(cc2Cl)[C@H]1O [Vancomycin, reference compound]
MBC (MRSA BAA-1707): 5.9 µM (≈ 8.55 µg/mL) | MRSA BAA-1707 MBEC (MRSA BAA-1707; Table 4, CBD): unable to eradicate | MBC ([1]; Staphylococcus aureus, MRSA, read-out: MRSA-2 Clinical Isolate MBC, Table 2): 3 to 62.5 µM (≈ 4.35 to 90.6 µg/mL) | MBC ([1]; Staphylococcus aureus, MRSA, read-out: MRSA-2 MBC, Table 3): 3 µM (≈ 4.35 µg/mL) | MBC [1, 13]: 3.0 µM (≈ 4.35 µg/mL) | MBC ([2]; read-out: MRSE ATCC 35984 MBC): 3 µM (≈ 4.35 µg/mL) | MBC ([2]; read-out: MRSE MBC): 3 µM (≈ 4.35 µg/mL) | % Haemolysis at 200 μM (human red blood cells; [15]): ≤1% | % Haemolysis at 200 μM (human red blood cells; Table 3, human red blood cells): ≤1% | MIC ([3]; Table 3): >100 µM | MIC [3]: > 100 µM | MBC ([5]; read-out: VRE ATCC 700221 MBC): > 200 µM | MBC ([5]; read-out: VRE MBC): > 200 µM

SMILES: CC(=O)NC[C@H]1CN(c2ccc(N3CCOCC3)c(F)c2)C(=O)O1 [Linezolid, reference compound]
MBC (MRSA BAA-1707; [7]): 31.3 µM (≈ 10.6 µg/mL) | MRSA BAA-1707 MBEC (MRSA BAA-1707; Table 4, CBD): unable to eradicate | % Haemolysis at 200 μM (human red blood cells; [15]): ≤1% | % Haemolysis at 200 μM (human red blood cells; Table 3, human red blood cells): ≤1% | MIC [6, 14]: 3.13 µM (≈ 1.06 µg/mL) | MIC ([6]; Table 3): 3.13 µM (≈ 1.06 µg/mL) | MIC ([3]; Table 2, ATCC 700221): 3.13 µM (≈ 1.06 µg/mL) | MIC ([3]; Table 3): 3.13 µM (≈ 1.06 µg/mL) | MIC [4, 16]: 3.13 µM (≈ 1.06 µg/mL) | MIC ([4]; Table 3, at least three independent experiments, read-out: MRSA-2 MIC): 3.13 µM (≈ 1.06 µg/mL)

Second part, led by results:

melting point: 172 to 174 °C
SMILES: N=C(N)c1ccc2c(Br)cc(Br)c(O)c2n1 [HQ-14, 5,7-dibromo-8-hydroxyquinoline-2-carboximidamide]

melting point: 114 to 116 °C
SMILES: CC(O)c1ccc2c(Br)cc(Br)c(O)c2n1 (stereo not drawn) [HQ-13, 5,7-dibromo-2-(1-hydroxyethyl)-8-hydroxyquinoline]

melting point: 131 to 133 °C
SMILES: OCc1ccc2c(Br)cc(Br)c(O)c2n1 [HQ-11, 5,7-dibromo-2-(hydroxymethyl)quinolin-8-ol]

melting point: 172 to 174 °C
SMILES: N#Cc1ccc2c(Br)cc(Br)c(O)c2n1 [HQ-8, 5,7-dibromo-8-hydroxyquinoline-2-carbonitrile]

MIC ([6]; Staphylococcus epidermidis, 18 h, Table 2, ATCC 35984): 0.15 to 0.3 µM (≈ 0.0612 to 0.122 µg/mL) | MIC [6, 14]: 0.15 µM (≈ 0.0612 µg/mL) | MIC ([3]; 18 h, Table 2, ATCC 700221): 0.39 to 0.78 µM (≈ 0.159 to 0.318 µg/mL) | MIC ([3]; Table 2, ATCC 700221): 0.78 µM (≈ 0.318 µg/mL) | MIC [4, 16]: 0.78 µM (≈ 0.318 µg/mL) | MIC ([4]; Staphylococcus, MRSA, read-out: MIC): 1.13 µM (≈ 0.461 µg/mL)
SMILES: Oc1c(Br)cc(Br)c2ccc(CNc3ccccc3)nc12 [HQ-3]
MBC (MRSA BAA-1707; [7]): 62.5 µM (≈ 25.5 µg/mL) | MBC ([1]; Staphylococcus aureus, MRSA, Table 2, read-out: MRSA-2 Clinical Isolate MBC): 125 µM (≈ 51 µg/mL) | MRSA-2 MBEC ([1]; Table 3, biofilm eradication, second value of MBC/MBEC cell): equipotent biofilm eradication activities | MBC ([2]; Table 2, planktonic killing, CBD, first value of cell, read-out: MRSE ATCC 35984 MBC): 7.8 µM (≈ 3.18 µg/mL) | MBC ([5]; Table 2, planktonic killing, CBD, first value of cell, read-out: VRE ATCC 700221 MBC): 7.8 µM (≈ 3.18 µg/mL)
